Source: US20060106102A1, “Napththalene derivatives which inhibit the cytokine or biological activity of microphage migration inhibitory factor (mif)” (priority 2002, published 2006)
Where a name gives a salt, the structure may show the parent alone. Read-outs that look alike come from different tables or passages of the source.

Tests used:
[1] = test system: antigen-specific T cell activation (splenic T lymphocytes from mBSA-immunised mice); assay: antigen-specific (mBSA) activation of splenic T lymphocytes in vitro, 3H-thymidine incorporation; type: cell-based, C57BL6/J mice
Method: After a further seven (7) days mice were killed and spleens collected aseptically into Hanks buffered saline solution (HBSS). A single cell suspension was prepared in Petri dishes by flushing DMEM through the organ using a 26G needle and 2 mL syringe. The resulting cell suspension was centrifuged for 5-7 minutes and supernatant discarded. Erythrocytes were lysed using a solution containing 0.579% NH4Cl, 0.000037% EDTA, and 0.1% NaHCO3 in a 37° C. water bath. Tubes were then filled with DMEM and centrifuged for 5-7 minutes. […] The specific stimulating antigen, mBSA, was then added at 10-50 μg/mL and plates incubated for 30 hours in a 37° C., 5% CO2 incubator. Tritiated^3H-thymidine was then added at a concentration of 0.5 μCi/well for a further 18 hours. Cells were harvested on a Packard cell harvester, and the harvested material added to 750 μL/tube scintillation fluid. Scintillation counts were read on a Wallac beta-emnission counter. […] Further compounds were also tested for their ability to inhibit antigen-specific T cell activation as a marker of the inhibition of the cytokine or biological activity of MIF using this assay.

[2] = test system: IL-1-induced COX-2 expression; assay: IL-1-induced COX-2 expression in S112 human dermal fibroblasts (MIF-dependent event), flow cytometry; type: cell-based; settings: for inhibition at 1 µM: compound 1 uM
Method: The activity of each compound was studied in a bioassay utilising MIF-dependent activation of human dermal fibroblasts. […] IL-1-induced COX-2 expression is therefore a MIF-dependent event. […] Prior to experimentation, cells were seeded at 10^5 cells/ml in RPMI/0.1% BSA for 18 hours. […] Cells permeabilised with 0.1% saponin were sequentially labelled with a mouse anti-human COX-2 monoclonal antibody and with sheep-anti-mouse F(ab)2 fragment labelled with fluoroscein isothiocyanate. Cellular fluorescence was determined using a flow cytometer. At least 5000 events were counted for each reading, each of which was performed in duplicate, and the results expressed in mean fluorescence intensity (MFI) after subtraction of negative control-labelled cell fluorescence. The effect of each compound was determined by subtracting the IL-1+compound-treated cell MFI from the IL-1-treated cell MFI and expressed as % inhibition. In each case the % inhibition of IL-1-induced COX2 expression is shown as the mean, or mean±SEM where results are available from multiple experiments.

[3] = test system: recombinant human macrophage migration inhibitory factor (MIF)-induced proliferation of S112 human dermal fibroblasts; assay: MIF-induced proliferation of S112 human dermal fibroblasts, 3H-thymidine incorporation; type: cell-based
Method: The activity of each compound was studied in a bioassay utilising MIF-induced proliferation of human dermal fibroblasts. S112 human dermal fibroblasts were propagated in RPMI/10% foetal calf serum (FCS). Prior to experimentation, cells were seeded at 10^5 cells/ml in RPMI/0.1% BSA for 18 hours. At time point zero, culture medium was replaced with RPMI/10% FCS and treatments administered. Cells were treated with recombinant human macrophage migration inhibitory factor (MIF) 50 ng/ml (1.353×10^−9 M) and/or the compound at a 1 or 1000 molar ratio to the concentration of MIF. In some experiments the compound was combined with MIF at time point −30 minutes, prior to adding at time point zero. At time point 30 hours, cells were pulsed with […]. At time point 48 hours, cells were harvested using a semi-automated cell harvester. The radioactivity incorporated into DNA was determined by liquid scintillation counting, with results expressed as [^3H] thymidine incorporation. The proliferation of untreated cells was expressed as 100% and the effect of MIF and each compound expressed in relative %.
The activity of compound 5 was studied in a bioassay utilising MIF-induced proliferation of human dermal fibroblasts. S112 human dermal fibroblasts were propagated in RPMI/10% foetal calf serum (FCS). Prior to experimentation, cells were seeded at 10^5 cells/ml in RPMII/0.1% BSA for 18 hours. At time point zero, culture medium was replaced with RPMI/10% FCS and treatments administered. Cells were treated with recombinant human macrophage migration inhibitory factor (MIF) 50 ng/ml and/or compound 5 at a 1-1000 molar ratio to the concentration of MIF. At a time point 30 hours later, cells were pulsed with 1 μCi/well of ^3H-thymidine. At a time point 48 hours after commencement of the experiment, cells were harvested using a semi-automated cell harvester. The radioactivity incorporated into DNA was determined by liquid scintillation counting, with results expressed as [^3H] thymidine incorporation.

[4] = Mus musculus, T-cell, mBSA 10 μg/ml, read-out: EC50 (T cell activation suppressed by 50% compared to vehicle-only-treated cells)
[5] = Mus musculus, T-cell, mBSA 50 μg/ml, read-out: EC50 (T cell activation suppressed by 50% compared to vehicle-only-treated cells)
[6] = Homo sapiens, Fibroblast, compound 50 uM, IL-1 0.1 ng/ml, 6 hours, S112 cells, read-out: % inhibition of IL-1-induced COX2 expression (Effect)
[7] = mBSA 10 μg/ml, read-out: EC50 (T cell activation suppressed by 50% compared to vehicle-only-treated cells)
[8] = mBSA 50 μg/ml, read-out: EC50 (T cell activation suppressed by 50% compared to vehicle-only-treated cells)
[9] = Homo sapiens, Fibroblast, IL-1 0.1 ng/ml, 6 hours, S112 cells, read-out: % inhibition of IL-1-induced COX2 expression (Effect)

Row | SMILES | EC50 [1, 4] [µM] | EC50 [1, 5] [µM] | inhibition at 50 µM [2, 6] [%] | also measured
1 | COC(=O)c1cc2cc(OC)ccc2cc1O [Compound 35, methyl 2-hydroxy-6-methoxy-3-naphthoate] | 8.89 | 0.22 |  | 
2 | COc1ccc2cc(C(CCCCCO)C(=O)O)ccc2c1 (stereo not shown) [Compound 58, 7-hydroxy-2-(6-methoxy-2-naphthyl)heptanoic acid] |  | 22.3 |  | 
3 | O=C(O)c1ccc2cc3c(cc2c1)OCCO3 [Compound 14, 2,3-dihydronaphtho[2,3-b][1,4]dioxine-7-carboxylic acid] | 10.2 | 0.12 | 24.1 | 
4 | O=C(O)c1ccc2c(S(=O)(=O)O)c(O)ccc2c1 [Compound 5, 2-carboxy-6-hydroxynaphthalene-5-sulfonic acid] | 2.39 | > 100 |  | effect on MIF-induced proliferation of human dermal fibroblasts (FIGS. 1 and 2) ([3]; 1M ratio equivalent to MIF 50 ng/ml): inhibition of MIF-induced proliferation
5 | COC(=O)c1ccc2ccc(O)c([N+](=O)[O-])c2c1 [Compound 46, Methyl 7-hydroxy-8-nitro-2-naphthoate ester] |  | 28.1 | 9.3 | 
6 | CCCCCCCCCCCCCCCCCCCCOC(=O)c1ccc2cc(O)ccc2c1 [Compound 19] | 10.8 | 0.95 |  | inhibition at 10 µM ([2]; Homo sapiens, Fibroblast, compound 10 uM, IL-1 0.1 ng/ml, 6 hours, S112 cells, read-out: % inhibition of IL-1-induced COX2 expression (Effect)): 7.7%
7 | Oc1cc2ccccc2cc1O [Compound 1, 6,7-dihydroxynaphthalene] |  |  |  | inhibition at 0.13 µM ([3]; Homo sapiens, Fibroblast, concentration 0.13 μM, rhMIF 50 ng/ml, S112 cells, read-out: % inhibition of proliferation compared to vehicle plus rhMIF-treated cells): 47%
8 | COc1ccc2cc([C@H](C)C(=O)O)ccc2c1 [Compound 8, S-(+)-6-methoxy-α-methyl-2-naphthalene acetic acid] |  |  |  | EC50 [1, 7]: 57.7 µM; EC50 [1, 8]: > 100 µM; % inhibition of proliferation compared to vehicle plus rhMIF-treated cells ([3]; concentration 0.013 μM, rhMIF 50 ng/ml, S112 cells): 4%; % inhibition of proliferation compared to vehicle plus rhMIF-treated cells ([3]; concentration 0.13 μM, rhMIF 50 ng/ml, S112 cells): 36%
9 | COC(=O)c1ccc2ccc(OC)cc2c1 [Compound 44, Methyl 7-methoxy-2-naphthoate ester] | 12.7 | > 100 | 9.8 | 
10 | COC(=O)c1ccc2cc(O)ccc2c1 [Compound 15, Methlyl-6-hydroxy-2-naphthoate] | 51.7 | 21.5 |  | inhibition at 1 µM [2, 9]: 17.3%
11 | COC(=O)c1ccc2cc(OC)cc(C)c2c1 [Compound 65, Methyl 6-methoxy-8-methyl-2-napthoate ester] |  | 18 | 50.4 | 
12 | CCOC(=O)c1ccc2cc(SC(=O)N(C)C)ccc2c1OC [Compound 33, Ethyl-6-[(dimethylamino)carbonyl]sulfanyl-1-methoxy-2-naphthoate] | 12.5 | 0.54 | 5.3 | 
13 | CCOC(=O)c1ccc2cc(O)ccc2c1O [Compound 28, Ethyl 1,6-dihydroxy-2-naphthaote] | 6.4 | 1.18 |  | inhibition at 25 µM ([2]; Homo sapiens, Fibroblast, compound 25 uM, IL-1 0.1 ng/ml, 6 hours, S112 cells, read-out: % inhibition of IL-1-induced COX2 expression (Effect)): 7.8%
14 | COc1ccc2cc(C)c(C(=O)O)cc2c1Br [Compound 40, 5-bromo-6-methoxy-2-methyl-3-naphthaoic acid] | 2.57 | 8.9 | 8.5 | 
15 | C[C@@H]1C[C@H]2[C@@H]3CCC4=CC(=O)C=C[C@]4(C)[C@@]3(F)[C@@H](O)C[C@]2(C)[C@@]1(O)C(=O)CO [dexamethasone, reference compound] |  |  |  | % inhibition (IL-1 induced COX-2 expression) ([2]; Table 2 experiment 2: dexamethasone alone, 10^−9 M): 63.8%
16 | COC(=O)c1ccc2c([N+](=O)[O-])c(O)ccc2c1 [Compound 47, Methyl 6-hydroxy-5-nitro-2-naphthoate ester] | 13.1 | > 100 |  | 
17 | COC(=O)c1ccc2ccc(O)cc2c1 [Compound 45, Methyl 7-hydroxy-2-naphanoate ester] | 14.8 | 32.4 |  | 
18 | O=C(O)CCCCCOC(=O)c1ccc2cc(O)ccc2c1 [Compound 22] | 3.5 | > 100 | 11.6 | 
19 | CCCCCNCc1cc2ccc(O)cc2cc1C(=O)O [Compound 43, 6-hydroxy-[2-(1-pentylamino)methyl]-3-naphthoic acid] |  |  |  | EC50 [1, 7]: 1.85 µM; EC50 [1, 8]: 41.5 µM; % inhibition of IL-1-induced COX2 expression (Effect) ([2]; compound 50 uM, IL-1 0.1 ng/ml, 6 hours, S112 cells): 24.10%
20 | O=C(O)c1ccc2cc(O)ccc2c1 [Compound 9, 6-hydroxy-2-naphthanoic acid] | 72.2 | 87.7 |  | inhibition at 1 µM [2, 9]: 7.5%
21 | CCCCCOS(=O)(=O)c1ccc2cc(O)c(O)cc2c1 [Compound 10, Pentyl 6,7-dihydroxy-2-naphthalenesulfonate] | 10 | 16.7 | 27.7 | 
22 | COc1ccc2cc(C)c(C(=O)O)cc2c1 [Compound 39, 7-methoxy-3-methyl-2-naphthoic acid: 2-amino-2-methylpropan-1-ol salt] | 49.3 | 89.8 | 13.3 | 
23 | CNc1ccc2cc(S(=O)(=O)O)ccc2c1 [Compound 11, 6-methylamino-2-naphthalene sulphonic acid, sodium salt] |  |  |  | EC50 ([1]; Mus musculus, T-cell, read-out: EC50 (T cell activation suppressed by 50% compared to vehicle-only-treated cells), mBSA 10 μg/ml): 0.02 µM; EC50 ([1]; Mus musculus, T-cell, read-out: EC50 (T cell activation suppressed by 50% compared to vehicle-only-treated cells), mBSA 50 μg/ml): 3.34 µM; inhibition at 25 µM ([2]; Homo sapiens, Fibroblast, 6 h, read-out: % inhibition of IL-1-induced COX2 expression (Effect)): 13.6%
24 | COC(=O)c1ccc2c(N)c(OC)ccc2c1 [Compound 49, Methyl 5-amino-6-methoxy-2-naphthoate ester] | 1.01 | 11.9 |  | 
